Assay results taken from patent publication US20180147206A1, “ACTIVATION OF NEURONAL STORE-OPERATED CALCIUM ENTRY PATHWAY FOR THE TREATMENT OF ALZHEIMER'S DISEASE” (The Board of Regents of the University of Texas System, priority 2015, published 2018).

How the values were obtained:
APPKIGFP and WTGFP mice = test: Contextual fear conditioning test; type: in vivo, mouse; conditions: i.p. 10 mg/kg
[1] = test system: mushroom spines of hippocampal neurons; test: Dendritic spine analysis in primary hippocampal neural cultures; type: cell-based, mouse; conditions: for mushroom spine loss: 30 nM for 16 hours
Protocol: FIGS. 4A-E. NSN21778 and Hyperforin rescue synaptic nSOC and mushroom spine loss in AD hippocampal neurons. (FIG. 4A) Chemical structure of NSN21778 and Hyperforin. (FIG. 4B) Time-course of GCaMP5.3 fluorescence signal changes in the spines of wild-type, PS1KI and APPKI hippocampal neurons. The time of extracellular Ca^2+ re-addition is indicated by a black bar above the traces. 100 μM DHPG was added 50 sec prior to Ca^2+ re-addition. The results are shown for control (CON) neurons and for neurons pretreated with 300 nM NSN21778 (+NSN) or 300 nM Hyperforin (+Hyp) for 30 min as indicated. For each experimental group individual spine (grey) and average (red) fluorescence traces are shown. (FIG. 4C) The average nSOC spine peak amplitude is shown for each group of cells shown on panel B. The mean AF/Fo signals for each group and presented as mean±SE (n≥45 spines). ***, p <0.001. (FIG. 4D) Confocal images of wild-type, PS1KI and APPKI hippocampal neurons transfected with TD-Tomato and fixed at DIV15-16. The images are shown for control neurons (CON) and for neurons treated with 30 nM NSN21778 (+NSN) or 30 nM Hyperforin (+Hyp) for 16 hours prior to fixation. Scale bar is 10 μm. (FIG. 4E) The average fraction of mushroom spines for each group of cells shown on FIG. 4D is presented as mean±SE (n≥18 neurons). ***, p <0.001.
FIGS. 5A-E. TRPC6 is a molecular target for NSN21778 and Hyperforin. (FIGS. 5A-B) Time course of Fura-2 Ca^2+ signals is shown for HEK293 cells transfected with EGFP plasmid (GFP) or combination of EGFP and TRPC6 plasmids (TRPC6). Cells were incubated in ACSF media containing 2 mM Ca^2+. In experiments shown in FIG. 5B, cells were moved to modified ACSF media containing 0.1 mM Ca^2+ for 2 min and then returned to the media containing 2 mM Ca^2+ with addition of 100 μM OAG. The time of addition of 1 μM Hyperforin (Hyp) or NSN21778 (NSN) is indicated by red bars above the Fura-2 traces. For each experimental group individual spine (grey) and average (red) fluorescence traces are shown. (FIG. 5C) The average Ca^2+ influx peak is shown for experiments presented on FIGS. 5A-B as mean±SE (n≥81). (FIG. 5D) Confocal images of wild-type and PS1KI hippocampal neurons transfected with TD-Tomato and fixed at DIV15-16. The neurons were infected with lentiviruses encoding control RNAi (siCtrl), RNAi against TRPC6 (siT6) or RNAi against Orai2 (siO2). The images are shown for no drug treated neurons (CON) and for neurons treated with 30 nM NSN21778 (+NSN) or 30 nM Hyperforin (+Hyp) for 16 hours prior to fixation. Scale bar is 10 μm. No drug treated group of wild-type and PS1KI neurons is from the same experiment as shown on FIG. 2A-J. (FIG. 5E) The average fraction of mushroom spines for each group of cells shown on panel A is presented as mean±SE (n≥19 neurons). ***, p <0.001.
Dendritic Spine Analysis in Primary Hippocampal Neural Cultures. The hippocampal cultures of PS1KI, APPKI and WT mice were established from postnatal day 0-1 pups and maintained in culture as the inventors described previously [Zhang, 2010 #5733]. For assessment of synapse morphology, hippocampal cultures were transfected with TD-Tomato plasmid at DIV7 using the calcium phosphate method and fixed (4% formaldehyde, 4% sucrose in PBS, pH 7.4) at DIV15-16. A Z-stack of optical section was captured using 100× objective with a confocal microscope (Carl Zeiss Axiovert 100M with LSM510). 18-20 cultured neurons from three batches of cultures were used for quantitative analysis per genotype. Quantitative analysis for dendritic spines was performed by using NeuronStudio software package [Rodriguez, 2008 #6276]. To classify the shape of neuronal spines in culture, the inventors adapted an algorithm from published method [Rodriguez, 2008 #6276]. In classification of spine shapes the inventors used the following cutoff values: aspect ratio for thin spines (AR_thin(crio))=2.5, head to neck ratio (HNR(crit))=1.4, and head diameter (HD(crit))=0.5 μm. […]

[2] = test system: other TRPCs (TRPC1-7), Orais (Orai1-3), or combination of TRPC6 and Orai2; test: Fura-2 Ca2+ imaging in HEK293 cells transfected with other TRPCs, Orais or TRPC6 plus Orai2; type: cell-based; conditions: 1 μM (data not shown)
Protocol: To confirm the target for Hyp and NSN compounds, the inventors overexpressed TRPC6 in HEK293 cells and performed a series of Fura-2 Ca^2+ imaging experiments. […] In additional experiments, the inventors evaluated effects of 1 μM NSN compound in experiments with HEK293 cells transfected with other TRPCs (TRPC1-7), Orais (Orail-3), or combination of TRPC6 and Orai2. […] From these experiments, the inventors concluded that Hyp acts as direct activator of TRPC6 channels, but the actions of NSN compound are more complex. In further experiments, the inventors measured SOC in conditions of store depletion. To achieve this, HEK239 cells were preincubated in Ca^2+-free media containing 1 μM Tg. In these experiments, the inventors observed endogenous SOC response in EGFP-transfected cells, which was further enhanced in TRPC6-transfected cells. […] TRPC6 channels are known to be activated by DAG (Estacion et al., 2004). In spine nSOC measurements, addition of 100 μM DHPG was required to generate robust Ca^2+ responses. Thus, in the next series of experiments, the inventors evaluated effects of OAG, a synthetic and stable analog of DAG.

spine nSOC channels = test: GCamp5.3 Ca2+ imaging of synaptic nSOC in cultured hippocampal neurons; type: cell-based, mouse

Structure (SMILES): CC(=O)Nc1ccc(CCNc2ncnc3ccc(N)cc23)cc1 [NSN21778, N-{4-[2-(6-Amino-quinazolin-4-ylamino)-ethyl]-phenyl}-acetamide]
- contextual fear conditioning phenotype (APPKIGFP and WTGFP mice; 6.5 month-old APPKIGFP mice): fully rescued
- contextual fear conditioning responses (APPKIGFP and WTGFP mice; WTGFP mice, difference to control not statistically significant): somewhat impaired responses
- mushroom spines ([1]; PS1KI and APPKI neurons, 30 nM for 16 hr): complete rescue
- mushroom spine loss ([1]; PS1KI cultures infected with control RNAi lentiviruses): rescued mushroom spine loss
- mushroom spine loss ([1]; PS1KI hippocampal neurons following knockdown of TRPC6 or Orai2): failed to rescue mushroom spine loss
- mushroom spine loss ([1]; wild-type neurons with knockdown of TRPC6 or Orai2): failed to rescue
- fraction of mushroom spines ([1]; wild-type neurons, 30 nM for 16 hr): no significant effect
- Ca2+ influx [2]: failed to induce Ca^2+ influx
- spine nSOC (spine nSOC channels; PS1KI and APPKI hippocampal neurons, 300 nM applied prior to Ca2+ re-addition): rescued spine nSOC
- spine nSOC (spine nSOC channels; wild-type spines, 300 nM): no significant effect
